Data published in patent US20160222014A1, “COMPOUNDS FOR REGULATING FAK AND/OR SRC PATHWAYS” (ASANA BIOSCIENCES, LLC, priority 2013, published 2016).

Columns and labels:
Type in all cases: biochemical
recombinant human FAK1 = molecular target: T1, recombinant human FAK1 (Homo sapiens, UniProt Q05397); assay: FAK1 HTRF assay
T1 construct: fused on or other part: N-terminal 6xHis tag
Method in brief: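 IC50 values derive from HTRF % inhibition (ratio 665/620 nm, Eu–anti-phosphotyrosine 0.1 nM, SA-APC 12 nM). The kinase step ran 45 min at room temperature, pairing 10 nM His-FAK1(692–end) from baculovirus with 0.5 μM gastrin Tyr87 biotin-peptide and a reagent at 10 μM final, pH 7.4. Compound dilutions began at 10 μM.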

Recombinant Src enzyme = molecular target: T2, Recombinant Src enzyme (Homo sapiens, UniProt P12931); assay: Src HTRF assay
T2 construct: purchased Millipore 14-326; host or cells: Sf21 insect cells
Experimental: Enzyme assay buffer, supplements, and compounds were prepared as described in the FAK HTRF assay.
Recombinant Src enzyme expressed in Sf21 insect cells was obtained (Millipore, Cat No. 14-326, Lot # D8CN006U-K). A 35 μM stock was used at a final concentration of 5 nM in the assay.
Tyk2 synthetic peptide-Biotinylated-N-terminal tag-[…]
A custom made substrate, a Tyk2 synthetic peptide, biotinylated with an N-terminal tag was obtained (Biopeptide and Sigma, Cat. No. 14918001 VC80021). A 100 μM stock was used at a final concentration of 0.5 μM in the assay.
A 10 mM stock in 100 μL enzyme assay buffer pH7.4 was prepared freshly and used at a final concentration of 10 μM in the assay.
Dasatinib (Bristol-Myers Squibb)
The assay procedure was the same as discussed above.

AURKB (Aurora B) enzyme = molecular target: T3, AURKB (Aurora B) enzyme (Homo sapiens, UniProt Q96GD4); assay: Aurora B HTRF assay; conditions: read-out: AuroraB IC50
T3 construct: purchased Invitrogen PVR 130
Experimental: AURKB (Aurora B) enzyme was obtained (Invitrogen, Cat No. PVR 130, Lot No. 857013J). A 8.64 μM stock was used at a final concentration 5 nM in the assay.
Lance@Ultera Ulight-PLK (Ser137) peptide substrate
Peptide substrate was obtained from Perkin Elmer (Lot#1629793, TRF0110-M). A 5 μM stock was used at a final concentration of 50 nM in the assay.
10 mM stock prepared freshly as above, used at a final concentration of 30 μM in assay.
The plate was covered with aluminum foil, put on a shaker and incubated 1 h at rt.
Reference: Pfizer aurora inhibitor PF-03814735 was procured from Selleckchem: Cat# S2725
Using stock Lance detection buffer, 1× Lance detection buffer was prepared. • 1. 10× lance detection buffer was diluted to 1×, mixed well and 100 μL was removed, and was used to substitute with antibody and EDTA (for a total of 2200 μL). • 2. 88 μL of […] EDTA was added from 500 mM stock. • 3. 14 μL Europium labeled antibody (LANCE@ Ultra EU-Anti-P-PLK(Ser 137), TRF0203-D, Lot No. 1630351, Perkin Elmer) was added from 625 nM stock; required concentration was 2 nM in the assay. • 4. The buffer well was mixed and 20 μL was transferred to the each well in the assay plate. • 5. The solutions were incubated for 1 h at rt. • 6. The plate was read using MET-HTRF® protocol using Pherastar equipment.

T3 sequence (Q96GD4 whole entry): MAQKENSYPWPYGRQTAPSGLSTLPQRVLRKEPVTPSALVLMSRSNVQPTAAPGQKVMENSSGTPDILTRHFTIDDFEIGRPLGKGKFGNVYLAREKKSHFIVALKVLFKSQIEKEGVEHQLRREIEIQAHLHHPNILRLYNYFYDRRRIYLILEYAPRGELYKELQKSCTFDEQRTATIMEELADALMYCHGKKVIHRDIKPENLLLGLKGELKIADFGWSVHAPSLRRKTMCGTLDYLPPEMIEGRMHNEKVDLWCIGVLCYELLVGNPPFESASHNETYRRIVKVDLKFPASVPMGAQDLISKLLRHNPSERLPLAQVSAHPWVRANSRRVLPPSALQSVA
T2 sequence (P12931 whole entry): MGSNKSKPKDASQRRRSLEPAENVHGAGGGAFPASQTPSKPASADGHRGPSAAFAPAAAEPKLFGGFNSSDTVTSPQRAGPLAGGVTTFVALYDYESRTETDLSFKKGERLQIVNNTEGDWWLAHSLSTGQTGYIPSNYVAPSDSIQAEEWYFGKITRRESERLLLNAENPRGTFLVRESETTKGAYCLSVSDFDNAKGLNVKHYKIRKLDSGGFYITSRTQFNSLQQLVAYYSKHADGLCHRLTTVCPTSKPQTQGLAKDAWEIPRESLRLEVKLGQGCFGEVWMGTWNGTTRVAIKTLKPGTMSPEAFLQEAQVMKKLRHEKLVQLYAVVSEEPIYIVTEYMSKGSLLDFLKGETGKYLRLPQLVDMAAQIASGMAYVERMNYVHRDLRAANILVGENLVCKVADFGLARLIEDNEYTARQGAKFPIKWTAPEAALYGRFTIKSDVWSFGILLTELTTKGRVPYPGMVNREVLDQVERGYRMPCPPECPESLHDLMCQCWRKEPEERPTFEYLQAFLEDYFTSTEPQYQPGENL
T1 sequence (Q05397 422-680 limits assumed): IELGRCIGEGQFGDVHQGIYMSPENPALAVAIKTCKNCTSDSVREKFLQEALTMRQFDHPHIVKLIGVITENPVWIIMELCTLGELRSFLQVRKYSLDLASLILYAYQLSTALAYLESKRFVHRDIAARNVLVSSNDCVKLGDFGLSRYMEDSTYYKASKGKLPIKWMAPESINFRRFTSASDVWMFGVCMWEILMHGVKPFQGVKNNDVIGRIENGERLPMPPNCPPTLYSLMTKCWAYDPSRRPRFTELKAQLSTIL

Row | IC50 (recombinant human FAK1) [nM] | IC50 (Recombinant Src enzyme) [nM] | IC50 (AURKB (Aurora B) enzyme) [nM] | Structure (SMILES)
1 | < 20 | > 1000 | > 1000 | COc1cc(N2CCNCC2)ccc1Nc1cc2c(cn1)C(C)(C)CN2S(=O)(=O)c1cccc2cccnc12 [Example 635]
2 | – | > 1000 | < 20 | CC(=O)Nc1ccc(Nc2cc3c(cn2)cnn3S(=O)(=O)c2cccc3cccnc23)cc1 [Example 315]
3 | – | > 1000 | < 20 | O=S(=O)(c1cccc2cccnc12)n1ncc2cnc(Nc3ccc(N4CC5CC4CN5)cc3)cc21 (stereo not drawn) [Example 383]
4 | < 20 | < 20 | < 20 | Cc1cc(Nc2ncc3ccn(S(=O)(=O)c4cccc5cccnc45)c3n2)ccc1N1CCNCC1 [Example 196]
5 | < 20 | < 20 | < 20 | O=S(=O)(c1cccc2ccccc12)n1ccc2cnc(Nc3ccc(N4CCNCC4)cc3)nc21 [Example 219]
6 | – | > 1000 | > 1000 | COc1cc(N2CCNCC2)ccc1Nc1cc2c(ccn2Cc2cccnc2N(C)S(C)(=O)=O)cn1 [Example 366]
7 | > 1000 | > 1000 | > 1000 | CN(c1ncccc1CN1CC(C)(C)c2cnc(Nc3ccc(N4CCNCC4)cc3)nc21)S(C)(=O)=O [Example 437]
8 | – | > 1000 | > 1000 | COc1cc(N2CCN[C@@H](C)C2)ccc1Nc1ncc2ccn(Cc3cccnc3N(C)S(C)(=O)=O)c2n1 [Example 629]
9 | – | > 1000 | < 20 | CN(c1ncccc1Cn1ccc2cnc(Nc3ccc(N4CCOCC4)cn3)nc21)S(C)(=O)=O [Example 107]
10 | < 20 | > 1000 | < 20 | COc1cc(N2CCOCC2)ccc1Nc1cc2c(ccn2S(=O)(=O)c2cccc3cccnc23)cn1 [Example 401]
11 | < 20 | < 20 | < 20 | COc1cc(Nc2ncc3ccn(Cc4ccccc4N(C)S(C)(=O)=O)c3n2)ccc1N1CCN(C)CC1 [Example 429]
12 | – | > 1000 | < 20 | Cc1nn(S(=O)(=O)c2ccccc2OC(F)(F)F)c2cc(Nc3ccc4c(c3)CCC(=O)N4)ncc12 [Example 90]
13 | – | > 1000 | > 1000 | CC(=O)Nc1cccc(Nc2cc3c(cn2)cnn3S(=O)(=O)c2ccccc2OC(F)(F)F)c1 [Example 86]
14 | – | > 1000 | < 20 | CN(c1cccc(Cn2ccc3cnc(Nc4ccc5c(c4)CCC(=O)N5)nc32)c1)S(C)(=O)=O [Example 50]
15 | < 20 | < 20 | < 20 | Cc1cc(Nc2ncc3ccn(S(=O)(=O)c4ccccc4C#N)c3n2)ccc1N1CCNCC1 [Example 212]
16 | – | > 1000 | < 20 | CN(C)CCOc1cccc(Nc2cc3c(ccn3S(=O)(=O)c3ccccc3OC(F)(F)F)cn2)c1 [Example 126]
17 | – | > 1000 | > 1000 | O=S(=O)(c1cc(Cl)ccc1Cl)N1CC2(CC2)c2cnc(Nc3ccc(N4CCNCC4)cc3)nc21 [Example 510]
18 | < 20 | > 1000 | – | COc1cc(N2CCN(C)CC2)ccc1Nc1cc2c(ccn2S(=O)(=O)c2ccccc2C#N)cn1 [Example 493]
19 | – | > 1000 | < 20 | CN(c1ncccc1Cn1ccc2cnc(Nc3ccc(N4CCNCC4=O)cc3)nc21)S(C)(=O)=O [Example 102]
20 | > 1000 | > 1000 | – | CC(=O)N(C)c1ccccc1Cn1ccc2cnc(Nc3ccc(N4CCN[C@H](C)C4)cc3)nc21 [Example 787]
21 | < 20 | > 1000 | – | CN(C)C1CCN(c2ccc(Nc3cc4c(cn3)C(C)(C)CN4S(=O)(=O)c3cccc4cccnc34)cc2)CC1 [Example 611]
22 | – | > 1000 | > 1000 | CC1(C)CN(S(=O)(=O)c2ccccc2C#N)c2cc(Nc3ccc(N4CCNCC4)cc3)ncc21 [Example 532]

Row | IC50 (recombinant human FAK1) [nM] | IC50 (Recombinant Src enzyme) [nM] | IC50 (AURKB (Aurora B) enzyme) [nM] | Structure (SMILES)
23 | > 1000 | > 1000 | – | CC(=O)Nc1ccc(S(=O)(=O)n2ccc3cnc(Nc4ccc(CC#N)cc4)nc32)cc1 [Example 183]
24 | > 1000 | > 1000 | – | COc1cccc(Nc2ncc3ccn(Cc4ccccc4N(CCN4CCNCC4)S(C)(=O)=O)c3n2)c1 [Example 583]
25 | < 20 | > 1000 | – | CC1(C)CN(c2ccccn2)c2nc(Nc3ccc4[nH]cc(C5=CCNCC5)c4c3)ncc21 [Example 713]
26 | < 20 | > 1000 | – | COc1cc(N2CCNCC2)ccc1Nc1ncc2ccn(S(=O)(=O)c3cc(C)cc4cccnc34)c2n1 [Example 360]
27 | < 20 | < 20 | – | O=C1CCc2cc(Nc3ncc4cnn(S(=O)(=O)c5cccc6cccnc56)c4n3)ccc2N1 [Example 228]
28 | < 20 | > 1000 | – | COc1cc(N2CCN(C)CC2)ccc1Nc1cc2c(ccn2S(=O)(=O)c2cccc3cccnc23)cn1 [Example 407]
29 | – | > 1000 | > 1000 | COc1cc(N2CCC(N(C)C)CC2)ccc1Nc1ncc2ccn(Cc3cccnc3N(C)S(C)(=O)=O)c2n1 [Example 634]
30 | – | > 1000 | > 1000 | FC(F)Oc1ccccc1Cn1ccc2cnc(Nc3ccc4ncsc4c3)cc21 [Example 20]
31 | > 1000 | > 1000 | – | C[C@H]1CN(c2ccc(Nc3ncc4ccn(Cc5ccccc5N(C)S(=O)(=O)CCCF)c4n3)c(F)c2)CCN1 [Example 730]
32 | > 1000 | > 1000 | – | C[C@H]1CN(c2ccc(Nc3ncc4ccn(Cc5cccnc5N(C)S(C)(=O)=O)c4n3)nc2)CCN1 [Example 585, (S)—N-methyl-N-(3-((2-((5-(3-methylpiperazin-1-yl)pyridin-2-yl)amino)-7H-pyrrolo[2,3-d]pyrimidin-7-yl)methyl)pyridin-2-yl)methanesulfonamide]
33 | < 20 | > 1000 | – | COc1cc(N2CCC(OC)CC2)ccc1Nc1cc2c(ccn2S(=O)(=O)c2cccc3cccnc23)cn1 [Example 430]
34 | < 20 | > 1000 | – | COc1cc(N2CCC(O)CC2)ccc1Nc1cc2c(cn1)cnn2S(=O)(=O)c1cccc2cccnc12 [Example 396]
35 | > 1000 | > 1000 | – | CN(c1ncccc1Cn1cc2cnc(Nc3ccc4c(c3)CCC(=O)N4)nc2n1)S(C)(=O)=O [Example 190]
36 | > 1000 | > 1000 | – | CN(C)C1CCN(c2ccc(Nc3ncc4c(n3)N(c3ccccc3NS(C)(=O)=O)CC4(C)C)cc2)CC1 [Example 784]
37 | < 20 | > 1000 | – | Cc1ccc(N(C)S(C)(=O)=O)c(Cn2ccc3cnc(Nc4ccc5c(c4)CC(=O)N5)nc32)c1 [Example 786]
38 | < 20 | > 1000 | – | COc1cc(N2CCN(C)CC2)ccc1Nc1ncc2ccn(Cc3ccccc3N(C)S(C)(=O)=O)c2n1 [Example 424]
39 | – | > 1000 | > 1000 | COc1cc(N2CCC(N(C)C)CC2)ccc1Nc1ncc2ccn(Cc3ccccc3N(C)S(C)(=O)=O)c2n1 [Example 628]
40 | – | > 1000 | < 20 | CNS(=O)(=O)c1cccc(Cn2ccc3cnc(Nc4ccc5c(c4)CCC(=O)N5)nc32)c1 [Example 60]
41 | > 1000 | > 1000 | – | CC(=O)N(C)c1ccccc1Cn1ccc2cnc(Nc3ccc(N4CCC(N(C)C)CC4)cc3)nc21 [Example 788]
42 | – | > 1000 | < 20 | O=c1[nH]c2ccc(Nc3ncc4ccn(S(=O)(=O)c5ccccc5OC(F)(F)F)c4n3)cc2[nH]1 [Example 93]
43 | – | > 1000 | < 20 | COc1cccc(Nc2ncc3ccn(S(=O)(=O)c4ccccc4C#N)c3n2)c1 [Example 178]
